We go through two molecules from ChEMBL document CHEMBL1201862, “PubChem BioAssay data set” (2004).

Calls of active or inactive are those of the source.

Assay [1] addresses Bcl-2-like protein 10 (Homo sapiens, UniProt Q9HD36). The assay can be described thus: Concentration-response of Bcl-B inhibitors by biochemical FP with TR3 (AID 1243). The format is functional.
Assay [2] has as its target T1, CAAX prenyl protease 2 (Saccharomyces cerevisiae S288c, UniProt Q03530).
T1 sequence (Q03530 whole entry): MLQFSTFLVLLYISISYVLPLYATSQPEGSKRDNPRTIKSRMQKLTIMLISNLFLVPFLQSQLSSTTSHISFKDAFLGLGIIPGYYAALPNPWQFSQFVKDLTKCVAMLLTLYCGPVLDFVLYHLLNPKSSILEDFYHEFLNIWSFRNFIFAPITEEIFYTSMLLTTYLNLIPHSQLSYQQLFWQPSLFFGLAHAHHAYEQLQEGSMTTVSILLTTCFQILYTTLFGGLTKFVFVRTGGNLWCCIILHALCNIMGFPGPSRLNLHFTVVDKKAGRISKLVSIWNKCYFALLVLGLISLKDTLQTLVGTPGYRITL
Type of assay: biochemical.

Assay [3] concerns the target T2, Sentrin-specific protease 7 (Homo sapiens, UniProt Q9BQF6).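 Note: Luminescence-based dose-response confirmation of ultra-high-throughput screening hits, measuring inhibition of SENP7.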
T2 sequence (Q9BQF6 whole entry): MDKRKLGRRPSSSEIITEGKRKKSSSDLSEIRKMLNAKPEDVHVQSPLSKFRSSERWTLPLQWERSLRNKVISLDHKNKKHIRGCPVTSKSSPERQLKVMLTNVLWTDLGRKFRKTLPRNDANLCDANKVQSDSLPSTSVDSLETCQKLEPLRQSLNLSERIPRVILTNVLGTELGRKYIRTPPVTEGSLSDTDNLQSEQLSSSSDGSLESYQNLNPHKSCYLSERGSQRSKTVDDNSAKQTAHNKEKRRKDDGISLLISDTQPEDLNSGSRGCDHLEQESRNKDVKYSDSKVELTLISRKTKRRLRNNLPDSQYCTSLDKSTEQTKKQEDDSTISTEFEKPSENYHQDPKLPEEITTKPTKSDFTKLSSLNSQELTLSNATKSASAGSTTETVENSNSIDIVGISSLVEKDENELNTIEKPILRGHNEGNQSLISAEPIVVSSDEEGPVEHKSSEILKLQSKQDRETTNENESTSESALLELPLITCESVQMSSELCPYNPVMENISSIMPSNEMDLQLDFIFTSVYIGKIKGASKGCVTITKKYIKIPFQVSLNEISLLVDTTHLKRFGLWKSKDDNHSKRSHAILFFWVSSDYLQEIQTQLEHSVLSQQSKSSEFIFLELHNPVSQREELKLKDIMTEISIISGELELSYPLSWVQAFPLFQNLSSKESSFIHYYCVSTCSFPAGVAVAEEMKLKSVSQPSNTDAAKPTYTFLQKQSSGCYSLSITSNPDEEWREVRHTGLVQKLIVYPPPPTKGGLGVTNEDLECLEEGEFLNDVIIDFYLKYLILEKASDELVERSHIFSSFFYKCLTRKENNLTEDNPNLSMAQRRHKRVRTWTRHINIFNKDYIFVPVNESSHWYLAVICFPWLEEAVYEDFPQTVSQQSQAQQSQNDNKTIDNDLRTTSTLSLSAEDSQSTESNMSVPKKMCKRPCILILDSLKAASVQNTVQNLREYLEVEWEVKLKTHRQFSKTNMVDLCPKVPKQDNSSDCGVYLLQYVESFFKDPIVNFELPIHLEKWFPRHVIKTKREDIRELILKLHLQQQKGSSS
The format is functional.

In assay [4] the target is T3, Caspase-3 (Homo sapiens, UniProt P42574).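 Note: Dose-response selectivity test against caspase-3 for candidate inhibitors of sentrin-specific proteases (SENPs).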
T3 sequence (P42574 whole entry): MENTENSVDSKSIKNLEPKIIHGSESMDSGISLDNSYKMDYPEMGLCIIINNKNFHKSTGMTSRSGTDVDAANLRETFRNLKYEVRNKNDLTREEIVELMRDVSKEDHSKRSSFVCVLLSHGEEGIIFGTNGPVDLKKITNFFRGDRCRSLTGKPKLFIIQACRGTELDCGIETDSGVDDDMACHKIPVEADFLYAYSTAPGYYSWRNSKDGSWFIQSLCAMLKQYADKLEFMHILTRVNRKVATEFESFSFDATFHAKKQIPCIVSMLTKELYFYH
The format is functional.

The nature of assay [5]: blockade of melanocortin 4 receptor signaling – cell-based, plate reader, cherry pick, counter-screen for LGR2 antagonist project, dose response (AID 743444).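 Note: transfected HEK 293 cells stimulated with alpha-MSH peptide; potency of inhibitors of the alpha-MSH evoked signal.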 The format is functional. Background: Counterscreens check selectivity or assay interference.
The target in assay [6] is Trypsin (Sus scrofa, UniProt P00761). The assay can be described thus: trypsin protease activity blockade – biochemical, quenched peptide fluorescence, cherry-pick, selectivity assay for Rce1 protease inhibitor project, dose response (AID 488789).
Trypsin, sequence (P00761 whole entry): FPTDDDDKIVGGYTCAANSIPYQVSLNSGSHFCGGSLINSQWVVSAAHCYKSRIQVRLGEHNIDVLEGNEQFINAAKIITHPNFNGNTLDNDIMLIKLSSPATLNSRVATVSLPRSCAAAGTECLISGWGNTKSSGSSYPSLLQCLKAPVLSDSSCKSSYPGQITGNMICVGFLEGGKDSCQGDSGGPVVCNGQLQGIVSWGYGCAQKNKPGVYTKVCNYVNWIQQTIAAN
Assay [7] can be described thus: blockers of bursicon-stimulated LGR2 cAMP reporter – cell-based, HEK293, CRE-luciferase reporter, cherry pick, set 2, dose response (AID 743343).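 Note: transfected cells were stimulated with diluted bursicon conditioned medium after compound addition.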 The format is functional. Background: In a reporter assay the amount or activity of a reporter protein is the signal.
Assay [8] concerns the target T4, Sentrin-specific protease 8 (Homo sapiens, UniProt Q96LD8).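 Note: luminescence read-out of SENP8 inhibition, dose-response confirmation following an ultra-high-throughput screen.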
T4 sequence (Q96LD8 whole entry): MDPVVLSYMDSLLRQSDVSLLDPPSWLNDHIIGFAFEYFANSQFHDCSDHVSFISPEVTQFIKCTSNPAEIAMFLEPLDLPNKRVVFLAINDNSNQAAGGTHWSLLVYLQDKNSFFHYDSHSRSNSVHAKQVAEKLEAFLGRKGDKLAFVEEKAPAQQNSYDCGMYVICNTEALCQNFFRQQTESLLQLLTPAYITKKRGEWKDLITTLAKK
The format is functional.

Assay [9] is described as follows: Luminescence-based counterscreen assay for KLF5 inhibitors: dose response cell-based high throughput screening assay to identify cytotoxic compounds using the IEC-6 intestinal epithelial cell line. [Related pubchem assays: 1700 (Primary screen.), 1834 (Confirmation screen.), 1858 (Summary AID.), 1905 (Counterscreen.)]. Type of assay: functional.
The target of assay [10] is T5, Sentrin-specific protease 6 (Homo sapiens, UniProt Q9GZR1).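 Note: Luminescence-based dose-response confirmatory assay of SENP6 inhibition, following up an ultra-high-throughput screen.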
T5 sequence (Q9GZR1 whole entry): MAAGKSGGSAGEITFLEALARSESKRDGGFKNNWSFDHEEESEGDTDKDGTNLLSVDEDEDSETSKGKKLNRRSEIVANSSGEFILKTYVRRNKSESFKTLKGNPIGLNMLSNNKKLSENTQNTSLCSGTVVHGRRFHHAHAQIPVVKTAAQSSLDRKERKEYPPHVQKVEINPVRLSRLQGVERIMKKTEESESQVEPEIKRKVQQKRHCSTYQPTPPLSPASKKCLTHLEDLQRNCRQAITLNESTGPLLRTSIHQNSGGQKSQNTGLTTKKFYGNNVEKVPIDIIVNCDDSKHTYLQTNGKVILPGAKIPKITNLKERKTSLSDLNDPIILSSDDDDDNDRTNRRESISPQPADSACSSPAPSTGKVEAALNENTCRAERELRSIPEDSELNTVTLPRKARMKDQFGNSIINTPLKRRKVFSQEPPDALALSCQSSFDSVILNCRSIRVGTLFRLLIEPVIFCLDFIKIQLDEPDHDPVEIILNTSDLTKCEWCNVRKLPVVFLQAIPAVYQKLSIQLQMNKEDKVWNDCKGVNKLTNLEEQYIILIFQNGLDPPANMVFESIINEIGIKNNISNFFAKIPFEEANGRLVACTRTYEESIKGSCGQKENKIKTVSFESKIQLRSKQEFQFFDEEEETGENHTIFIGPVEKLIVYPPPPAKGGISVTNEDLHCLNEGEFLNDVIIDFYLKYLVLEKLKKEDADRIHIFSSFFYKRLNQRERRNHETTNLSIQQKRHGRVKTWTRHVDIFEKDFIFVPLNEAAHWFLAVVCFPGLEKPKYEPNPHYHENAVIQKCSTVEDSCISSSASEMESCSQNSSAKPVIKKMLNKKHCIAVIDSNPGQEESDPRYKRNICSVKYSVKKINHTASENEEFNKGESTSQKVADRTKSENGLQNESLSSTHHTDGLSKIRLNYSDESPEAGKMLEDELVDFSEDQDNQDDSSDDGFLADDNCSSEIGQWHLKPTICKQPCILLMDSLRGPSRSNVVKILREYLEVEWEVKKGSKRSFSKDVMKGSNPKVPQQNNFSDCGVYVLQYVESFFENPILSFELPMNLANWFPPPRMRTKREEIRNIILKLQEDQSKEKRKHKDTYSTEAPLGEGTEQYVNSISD
The format is functional.

Bcl-2-like protein 10, sequence (Q9HD36 whole entry): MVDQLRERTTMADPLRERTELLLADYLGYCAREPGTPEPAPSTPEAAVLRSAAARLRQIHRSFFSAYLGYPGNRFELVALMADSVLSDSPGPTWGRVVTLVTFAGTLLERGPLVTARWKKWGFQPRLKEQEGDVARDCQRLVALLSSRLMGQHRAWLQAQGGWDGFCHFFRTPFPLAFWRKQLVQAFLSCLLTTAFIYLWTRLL

Consider `Nc1ccc(S(=O)(=O)O)c2cccc(O)c12`, for which the EC50 in [1] was 1.05 µM (active).
With `Nc1c(C(=O)Nc2cccc(C(=O)O)c2)sc2nc3c(cc12)CCCC3`, the AC50 in assay [2] was 47.8 µM (active); in assay [5], 3.29 µM (active); in assay [6], 10.5 µM (active); in [7], 3.06 µM (active). Also, the IC50 is 7.47 µM (active) in assay [3]; 71.6 µM (active) in assay [4]; 31 µM (active) in assay [8]; > 39.8 µM (not active) in [9]; 15.1 µM (active) in assay [10].

A word on the EC50: it is the concentration at which the effect is half-maximal. The AC50 is the concentration giving half of the maximal activity seen. As usually defined, the IC50 is the midpoint of a concentration-inhibition curve.
